Measured values reported in patent US9642829B2, “Antifungal compound and uses thereof” (The University of Hong Kong, priority 2012, dated 2017).

What was measured:
resistant isolate T-1549 = assay: Antifungal activity compared with caspofungin and amphotericin B (FIG. 2, CLSI M44-A disc diffusion); type: cell-based, C. guilliermondii; details: resistant isolate T-1549 (FIG. 2C)
From the text: Oral Biosciences laboratory has one of the largest collections of fungal isolates, particular that of Candida species in the world. In our previous studies, we have found multidrug resistant clinical isolates of Candida species against existing antifungals. In particular, some of these strains are resistant to best antifungal agents to date such as caspofungin, amphotericin B and fluconazole. Therefore, we performed antifungal susceptibility testing for SM21 against these drug resistant Candida isolates suing CLSI M27A brothmicrodultion assay and CLSI M44-A disc diffusion assay.

C. albicans = assay: Systemic candidiasis mouse model; type: in vivo; details: i.v. C. albicans 1×10^6 cells/mL, 100 μl; 2 μg SM21 from 3 h post-infection, twice a day for five days
Description: As a pilot study, we used systemic candidiasis mouse models we have established in our laboratory to evaluate the effect of SM21 against systemic Candida infection. In brief, C. albicans inoculum of 1×10^6 cells/mL was prepared in phosphate buffered saline (PBS) eight mice were infected with 100 μl of the standard inoculum size intravenously via the tail vein. Three hours after post-infection four mice (test group) were given 2 μg of SM21 and other four (control group) were given PBS. SM21 treatment was continued twice a day for five days. By five days all mice in the control group died (FIG. 8). Mice in each test group were sacrificed according to the standard guidelines and their kidney, liver, pancreas, and spleen will be harvested. The fungal burden in the tissues will be assessed according to a standard protocol. In brief, part of the excised tissues were weighed individually and homogenized in sterile saline. Aliquots of 100 μL from tissue homogenates and their dilutions were plated on Sabouraud's dextrose agar and colonies were counted after 48 h of incubation at 37° C.

CN(C)c1ccc(/C=C/c2cc(C(C)(C)C)[o+]c(C(C)(C)C)c2)cc1.[O-][Cl+3]([O-])([O-])[O-] [SM21]
Effectiveness against resistant isolate (resistant isolate T-1549): effective
Survival of infected mice (C. albicans): saved all the mice
